Values quoted from earlier work as cited in patent US20060046998A1, “Method of treatment of gastroesophageal reflux disease and laryngopharyngeal reflux disease” (Fairfield Clinical Trials, LLC, priority 2004, published 2006).

Details: oral, when beginning a course of PPI therapy

Compound	time to obtain maximal symptomatic relief
COc1ccc2nc([S@@+]([O-])Cc3ncc(C)c(OC)c3C)[nH]c2c1 [esomeprazole]	four
Cc1c(OCC(F)(F)F)ccnc1C[S+]([O-])c1nc2ccccc2[nH]1 (centres unmarked) [lansoprazole]	five
